The values below come from PubChem BioAssay AID180 (DTP/NCI, 2004).

This test has as its system BDF1 mice, Adenocarcinoma 755 s.c., tumor weight T/C. The test can be described thus: NCI In Vivo Anticancer Drug Screen. Data for tumor model Adenocarcinoma 755 (subcutaneous) in B6D2F1 (BDF1) mice. Particulars: endpoint: mean tumor weight, higher = larger tumour. In a few lines: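 Tumor-bearing mice receive test compound while controls get vehicle alone. Antitumor effect is scored from survival or tumor dimensions as a T/C quotient.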

SMILES strings stand for the structures. Several values for one entry are separate records, joined by “and”; a condition that tells them apart may be missing. Identical values can stand only once.

One may read the T/C as the result in the treated group divided by that in the control group, in per cent. Turning to `COc1ccc(-c2c(C)c(C(=O)O)nc(-c3ccc4c(O)c(OC)c5c(c4n3)=NC(C)(C)N=5)c2N)c(O)c1OC`, the T/C reads like this: (dose: 2.5 mg/kg/injection, schedule: Q01DX011 (ip), vehicle: water) 26 % of control; (dose: 2.5 mg/kg/injection, schedule: Q01DX011 (oral), vehicle: water) 6 % of control; (dose: 2.5 mg/kg/injection, schedule: Q## X006 (ip), vehicle: water) 59 % of control; (dose: 2.5 mg/kg/injection, schedule: Q## X006 (oral), vehicle: water) 43 % of control; (dose: 2.5 mg/kg/injection, schedule: Q#A X022 (ip), vehicle: water) 51 % of control; (dose: 5.0 mg/kg/injection, schedule: Q01DX005 (iv), vehicle: water) 58 % of control. Moreover, the T/C (dose: 5.0 mg/kg/injection, schedule: Q01DX006 (ip), vehicle: water) was 64 % of control; the T/C (dose: 5.0 mg/kg/injection, schedule: Q01DX011 (im), vehicle: water) was 64 % of control; the T/C (dose: 5.0 mg/kg/injection, schedule: Q01DX011 (ip), vehicle: water) was 5 % of control; the T/C (dose: 5.0 mg/kg/injection, schedule: Q01DX011 (oral), vehicle: water) is 2 % of control; the T/C (dose: 5.0 mg/kg/injection, schedule: Q01DX011 (sc), vehicle: water) is 13 % of control; the T/C (dose: 5.0 mg/kg/injection, schedule: Q## X006 (ip), vehicle: water) is 57 % of control. Also, the T/C (dose: 5.0 mg/kg/injection, schedule: Q## X006 (oral), vehicle: water) was 79 % of control; the T/C (dose: 5.0 mg/kg/injection, schedule: Q#A X022 (ip), vehicle: water) was 21 % of control; the T/C (dose: 7.5 mg/kg/injection, schedule: Q01DX006 (ip), vehicle: water) was 63 % of control; the T/C (dose: 7.5 mg/kg/injection, schedule: Q#A X022 (ip), vehicle: water) was 9 % of control; the T/C (dose: 8.0 mg/kg/injection, schedule: Q01DX011 (ip), vehicle: water) was 50 % of control; the T/C (dose: 10.0 mg/kg/injection, schedule: Q01DX005 (iv), vehicle: water) is 26 % of control. Also, the T/C is 28 % of control (dose: 10.0 mg/kg/injection, schedule: Q01DX006 (ip), vehicle: water); 13 % of control (dose: 10.0 mg/kg/injection, schedule: Q01DX011 (im), vehicle: water); 15 % of control (dose: 10.0 mg/kg/injection, schedule: Q01DX011 (sc), vehicle: water); 19 % of control (dose: 10.0 mg/kg/injection, schedule: Q## X006 (ip), vehicle: water); 44 % of control (dose: 10.0 mg/kg/injection, schedule: Q## X006 (oral), vehicle: water); 62 % of control (dose: 12.0 mg/kg/injection, schedule: Q03DX004 (ip), vehicle: water). Moreover, the T/C is, setting by setting: (dose: 13.0 mg/kg/injection, schedule: Q01DX011 (ip), vehicle: water) 10 % of control; (dose: 15.0 mg/kg/injection, schedule: Q01DX005 (iv), vehicle: water) 6 % of control; (dose: 15.0 mg/kg/injection, schedule: Q01DX011 (im), vehicle: water) 10 % of control; (dose: 15.0 mg/kg/injection, schedule: Q01DX011 (sc), vehicle: water) 4 % of control; (dose: 18.0 mg/kg/injection, schedule: Q03DX004 (ip), vehicle: water) 38 % of control; (dose: 20.0 mg/kg/injection, schedule: Q01DX011 (ip), vehicle: water) 6 % of control. The T/C by setting is: (dose: 20.0 mg/kg/injection, schedule: Q## X006 (ip), vehicle: water) 39 % of control; (dose: 20.0 mg/kg/injection, schedule: Q## X006 (oral), vehicle: water) 20 % of control; (dose: 22.0 mg/kg/injection, schedule: Q07DX002 (ip), vehicle: water) 48 % of control; (dose: 22.5 mg/kg/injection, schedule: Q01DX005 (iv), vehicle: water) 2 % of control; (dose: 22.5 mg/kg/injection, schedule: Q01DX011 (im), vehicle: water) 1 % of control; (dose: 27.0 mg/kg/injection, schedule: Q03DX004 (ip), vehicle: water) 4 % of control. The T/C (dose: 34.0 mg/kg/injection, schedule: Q01DX001 (ip), vehicle: water) is 45 % of control and 50 % of control; the T/C (dose: 35.0 mg/kg/injection, schedule: Q07DX002 (ip), vehicle: water) is 55 % of control; the T/C (dose: 44.0 mg/kg/injection, schedule: Q01DX001 (ip), vehicle: water) was 52 % of control and 57 % of control; the T/C (dose: 50.0 mg/kg/injection, schedule: Q07DX002 (ip), vehicle: water) is 8 % of control; the T/C (dose: 67.0 mg/kg/injection, schedule: Q01DX001 (ip), vehicle: water) was 18 % of control.

Turning to `Cn1c2c(sc1=O)CCC2`, the T/C was 54 % of control (dose: 88.0 mg/kg/injection, schedule: Q01DX011 (ip), vehicle: methylcellulose (MC)) and 80 % of control (dose: 175.0 mg/kg/injection, schedule: Q01DX011 (ip), vehicle: methylcellulose (MC)).

In the case of `CN(N=O)C(N)=O`, the T/C (dose: 2.5 mg/kg/injection, schedule: Q01DX011 (ip), vehicle: methylcellulose (MC)) is 109 % of control; the T/C (dose: 2.81 mg/kg/injection, schedule: Q01DX011 (ip), vehicle: carboxymethylcellulose (CMC)) was 78 % of control; the T/C (dose: 3.16 mg/kg/injection, schedule: Q01DX011 (ip), vehicle: carboxymethylcellulose (CMC)) is 78 % of control; the T/C (dose: 5.0 mg/kg/injection, schedule: Q01DX011 (ip), vehicle: methylcellulose (MC)) is 97 % of control; the T/C (dose: 5.62 mg/kg/injection, schedule: Q01DX011 (ip), vehicle: carboxymethylcellulose (CMC)) is 120 % of control; the T/C (dose: 6.32 mg/kg/injection, schedule: Q01DX011 (ip), vehicle: carboxymethylcellulose (CMC)) was 76 % of control. For the same compound, the T/C (dose: 6.33 mg/kg/injection, schedule: Q01DX011 (ip), vehicle: carboxymethylcellulose (CMC)) is 79 % of control; the T/C (dose: 7.2 mg/kg/injection, schedule: Q01DX011 (ip), vehicle: carboxymethylcellulose (CMC)) is 108 % of control; the T/C (dose: 9.0 mg/kg/injection, schedule: Q01DX011 (ip), vehicle: carboxymethylcellulose (CMC)) is 77 % of control; the T/C (dose: 10.0 mg/kg/injection, schedule: Q01DX011 (ip), vehicle: methylcellulose (MC)) is 87 % of control; the T/C (dose: 10.12 mg/kg/injection, schedule: Q01DX011 (ip), vehicle: carboxymethylcellulose (CMC)) is 109 % of control and 119 % of control; the T/C (dose: 12.0 mg/kg/injection, schedule: Q01DX011 (ip), vehicle: carboxymethylcellulose (CMC)) is 79 % of control. For the same compound, the T/C runs as follows: (dose: 13.0 mg/kg/injection, schedule: Q01DX011 (ip), vehicle: carboxymethylcellulose (CMC)) 93 % of control; (dose: 15.0 mg/kg/injection, schedule: Q01DX011 (ip), vehicle: carboxymethylcellulose (CMC)) 97 % of control and 85 % of control; (dose: 18.0 mg/kg/injection, schedule: Q01DX011 (ip), vehicle: carboxymethylcellulose (CMC)) 13 % of control; (dose: 20.0 mg/kg/injection, schedule: Q01DX011 (ip), vehicle: methylcellulose (MC)) 27 % of control; (dose: 22.5 mg/kg/injection, schedule: Q01DX011 (ip), vehicle: carboxymethylcellulose (CMC)) 21 % of control and 42 % of control; (dose: 25.0 mg/kg/injection, schedule: Q01DX011 (ip), vehicle: carboxymethylcellulose (CMC)) 24 % of control.

On to `CCC1CN1CC1CO1` (stereo unspecified), for which the T/C (dose: 5.0 mg/kg/injection, schedule: Q01DX011 (ip), vehicle: saline) was 96 % of control and the T/C (dose: 10.0 mg/kg/injection, schedule: Q01DX011 (ip), vehicle: saline) was 99 % of control.

Take `Nc1nc(SCc2ccc(F)cc2)c2ncn(C3OC(CO)C(O)C3O)c2n1` (stereo unspecified): the T/C (dose: 3.1 mg/kg/injection, schedule: Q01DX011 (ip), vehicle: methylcellulose (MC)) was 86 % of control; the T/C (dose: 6.2 mg/kg/injection, schedule: Q01DX011 (ip), vehicle: methylcellulose (MC)) is 59 % of control; the T/C (dose: 12.5 mg/kg/injection, schedule: Q01DX011 (ip), vehicle: methylcellulose (MC)) is 19 % of control; the T/C (dose: 25.0 mg/kg/injection, schedule: Q01DX011 (ip), vehicle: methylcellulose (MC)) was 11 % of control.

Turning to `CCOC1CCCC(n2cnc3c(Cl)ncnc32)O1` (stereo unspecified), the T/C reads like this: (dose: 7.81 mg/kg/injection, schedule: Q01DX011 (ip), vehicle: methylcellulose (MC)) 64 % of control; (dose: 15.63 mg/kg/injection, schedule: Q01DX011 (ip), vehicle: methylcellulose (MC)) 65 % of control; (dose: 31.25 mg/kg/injection, schedule: Q01DX011 (ip), vehicle: methylcellulose (MC)) 43 % of control; (dose: 62.5 mg/kg/injection, schedule: Q01DX011 (ip), vehicle: methylcellulose (MC)) 3 % of control and 17 % of control.
